Laboratory results from PMC11089506 (Journal of Medicinal Chemistry, 2024).
“Also recorded” adds a separate entry of the source. Counter-ions that a name gives are not always drawn. Like-named read-outs stand apart in the source and are kept apart here.

Columns and labels:
[1] = target: Ca2+ Channel L-Type, (Dihydropyridine) (Rattus norvegicus, UniProt P22002); assay: biochemical; conditions: read-out: % inhibition of the specific radioligand binding
[2] = target: Androgen receptor (NHR) (Homo sapiens, UniProt P10275); conditions: estimated from the % inhibition data
[3] = target: T1, 5-HT7 (Homo sapiens, UniProt P34969); assay: radioligand competition binding, [3H]LSD
T1 construct: Eurofins

[4] = target: T2, Sigma receptor σ1 (Homo sapiens, UniProt Q99720); assay: radioligand competition binding, [3H]Pentazocine
T2 construct: Eurofins (contract laboratory)

[5] = target: NMDA receptor (Glutamate) (Rattus norvegicus, UniProt Q00959); assay: biochemical; conditions: read-out: % inhibition of the specific radioligand binding
[6] = target: T3, α1D (adrenergic receptor) (Homo sapiens, UniProt P25100); assay: radioligand competition binding, [3H]Prazosin
T3 construct: Eurofins

[7] = target: T4, K+ Channel (KATP) (Cricetus cricetus, UniProt Q09427); assay: radioligand competition binding, [3H]Glyburide; design: species or system hamster
T4 construct: Eurofins

[8] = target: T5, 5-HT4e (Homo sapiens, UniProt Q13639); assay: radioligand competition binding, [3H]GR 113808
T5 construct: Eurofins

[9] = target: human 5-HT2CR (Homo sapiens, UniProt P28335); assay: Ca2+/Fluo-4 assay, agonist mode, stable 5-HT2CR-HEK293 cells
[10] = target: T6, Adrenergic receptor α1B (Homo sapiens, UniProt P35368); assay: radioligand competition binding, [3H]Prazosin
T6 construct: Eurofins

[11] = tested on: Kainate receptor; assay: radioligand competition binding, [3H]Kainic acid; design: species or system rat
[12] = target: T7, 5-HT3 (Homo sapiens, UniProt P46098); assay: radioligand competition binding, [3H]BRL 43694; conditions: read-out: % inhibition of the specific radioligand binding
T7 construct: Eurofins

[13] = target: T8, GABAB(1a,2) receptor (Homo sapiens, UniProt Q9UBS5); assay: radioligand competition binding, [3H]CGP-54626
T8 construct: Eurofins

[14] = target: T9, 5-HT1D (Rattus norvegicus, UniProt P28565); assay: radioligand competition binding, [3H]serotonin
T9 construct: Eurofins

[15] = target: T10, α2A (adrenergic receptor) (Homo sapiens, UniProt P08913); assay: radioligand competition binding, [3H]RX 821002
T10 construct: Eurofins
T10 sequence (P08913 1-465): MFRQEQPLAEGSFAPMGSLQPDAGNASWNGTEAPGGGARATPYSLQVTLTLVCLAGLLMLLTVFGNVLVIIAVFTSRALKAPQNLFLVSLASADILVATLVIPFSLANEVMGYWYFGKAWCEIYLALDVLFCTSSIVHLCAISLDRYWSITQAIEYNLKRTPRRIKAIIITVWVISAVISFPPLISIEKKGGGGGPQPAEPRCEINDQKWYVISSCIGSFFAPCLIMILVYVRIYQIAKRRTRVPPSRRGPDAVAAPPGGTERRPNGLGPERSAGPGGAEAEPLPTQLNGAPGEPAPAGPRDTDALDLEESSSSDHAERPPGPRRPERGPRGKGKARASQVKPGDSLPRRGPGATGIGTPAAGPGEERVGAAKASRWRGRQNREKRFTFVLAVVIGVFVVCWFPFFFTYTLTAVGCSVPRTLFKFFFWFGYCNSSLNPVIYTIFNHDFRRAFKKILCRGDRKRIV

[16] = tested on: Phosphodiesterase; assay: radioligand competition binding, [3H]Rolipram; design: species or system rat
[17] = target: T11, hERG K+ channel (Homo sapiens, UniProt Q12809); assay: radioligand competition binding, [3H]Astemizole; conditions: human, probe [3H]Astemizole; read-out: % inhibition of the specific radioligand binding
T11 construct: Eurofins

[18] = target: T12, K+ Channel (hERG) (Homo sapiens, UniProt Q12809); assay: radioligand competition binding, [3H]Astemizole; conditions: estimated from the % inhibition data
T12 construct: Eurofins

[19] = target: T13, Epidermal Growth Factor receptor (Homo sapiens, UniProt P00533); assay: radioligand competition binding, [125I]EGF
T13 construct: Eurofins

[20] = target: T14, Opioid receptor κ (Homo sapiens, UniProt P41145); assay: radioligand competition binding, [3H]Diprenorphine (first line)
T14 construct: Eurofins

[21] = target: T15, Adenosine receptor A1 (Homo sapiens, UniProt P30542); assay: radioligand competition binding, [3H]DPCPX
T15 construct: Eurofins

[22] = target: T16, DAT (Homo sapiens, UniProt Q01959); assay: radioligand competition binding, [3H]BTCP
T16 construct: Eurofins

[23] = target: T17, D1 (dopaminergic receptor) (Homo sapiens, UniProt P21728); assay: radioligand competition binding, [3H]SCH 23390; conditions: read-out: % inhibition of the specific radioligand binding
T17 construct: Eurofins

[24] = target: T18, Cannabinoid receptor CB1 (Homo sapiens, UniProt P21554); assay: radioligand competition binding, [3H]SR141716A
T18 construct: Eurofins

[25] = target: T19, Tachykinin receptor NK2 (Homo sapiens, UniProt P21452); assay: radioligand competition binding, [125I]Neurokinin A
T19 construct: Eurofins (contract laboratory)

[26] = target: T20, Nicotinic acetylcholine receptor α3β4 (Homo sapiens, UniProt P30926+P32297); assay: radioligand competition binding, [125I]Epibatidine
T20 construct: Eurofins

[27] = estimated from the % inhibition data
[28] = read-out: % inhibition of the specific radioligand binding

COc1cc(C(F)(F)F)c(OC)cc1[C@@H]1CCCNC1 [(S)-11, 3-(2,5-Dimethoxy-4-(trifluoromethyl)phenyl)piperidine Hydrochloride]
inhibition at 10 µM [1]: -6% | IC50 [2]: > 10 µM | IC50 [3, 27]: 1 to 10 µM | inhibition at 1 µM [3, 28]: 17% | inhibition at 10 µM [3, 28]: 62% | IC50 [4, 27]: 1 to 10 µM | inhibition at 10 µM [4, 28]: 84% | inhibition at 10 µM [5]: -8% | IC50 [6, 27]: > 10 µM | inhibition at 10 µM [6, 28]: 27% | IC50 [7, 27]: > 10 µM | inhibition at 10 µM [7, 28]: -2% | IC50 [8, 27]: > 10 µM | inhibition at 10 µM [8, 28]: 30% | agonist activity at 5-HT2CR (in words) [9]: negligible agonist efficacy; also recorded: absence of measurable agonist efficacy | EC50 ([9]; 5-HT2CR EC50 (nM), Table 1, at least 3 independent experiments): > 50000 nM | agonist activity at 5-HT2CR (in words) ([9]; listed as 11eu): did not elicit measurable agonist activity | IC50 [10, 27]: > 10 µM | inhibition at 10 µM [10, 28]: 33% | % inhibition of the specific radioligand binding ([11]; (S)-11 10 μM, n=1): 9% | IC50 [11, 27]: > 10 µM | inhibition at 10 µM [12]: 6% | IC50 [13, 27]: > 10 µM | inhibition at 10 µM [13, 28]: 6% | IC50 [14, 27]: 0.1 to 1 µM | inhibition at 0.1 µM [14, 28]: 18% | inhibition at 1 µM [14, 28]: 64% | inhibition at 10 µM [14, 28]: 93% | IC50 [15, 27]: > 10 µM | inhibition at 1 µM [15, 28]: 1% | inhibition at 10 µM [15, 28]: 34% | % inhibition of the specific radioligand binding ([16]; (S)-11 10 μM, n=1): 8% | IC50 [16, 27]: > 10 µM | inhibition at 10 µM [17]: 32% | IC50 [18]: > 10 µM | IC50 [19, 27]: > 10 µM | inhibition at 10 µM [19, 28]: -18% | IC50 [20, 27]: > 10 µM | inhibition at 10 µM [20, 28]: 18% | IC50 [21, 27]: > 10 µM | inhibition at 10 µM [21, 28]: 4% | IC50 [22, 27]: > 10 µM | inhibition at 10 µM [22, 28]: 12% | inhibition at 10 µM [23]: 30% | IC50 [24, 27]: > 10 µM | inhibition at 10 µM [24, 28]: 14% | IC50 [25, 27]: > 10 µM | inhibition at 10 µM [25, 28]: 1% | IC50 [26]: ~10 µM | inhibition at 10 µM [26, 28]: 51%
